Results as given in US20250263439A1, “HETERODIMERIC PEPTIDE REAGENTS AND METHODS” (REGENTS OF THE UNIVERSITY OF MICHIGAN, priority 2018, published 2025).

Key:
[1] = tested on: OE33 cells; assay: Apparent dissociation constant by flow cytometry with OE33 cells; type: binding, human
Method: The apparent dissociation constant (Kd) was measured to assess binding affinity of the heterodimer to OE33 cells. The heterodimer was serially diluted in PBS at concentrations of about 0, 10, 25, 50, 100, and 200 nM with about […] at 4° C. for one hour and washed with cold PBS. The mean fluorescence intensities were measured with flow cytometry (BD LSRII, BD Biosciences). The equilibrium dissociation constant Kd 1/Ka was calculated with a least-squares fit of the data to the nonlinear equation I=(I0+ImaxKa[X])/(I0+Ka[X]). I0 and Imax are the initial and maximum fluorescence intensities, corresponding to no peptide and at saturation, respectively, and [X] represents the concentration of bound peptide. Prism 5.0 software (Graphpad Inc.) was used to calculate Kd and Ka.

[2] = Acute toxicity, histology (H&E) of major organs; type: in vivo, mice; conditions: brain, heart, kidney, liver, spleen and lung; after day 15
Method: Optical imaging was performed in nude mice bearing xenograft tumors in vivo to characterize pharmacokinetics and assess toxicity. All experimental procedures were performed in accordance with relevant guidelines and regulations of the University of Michigan, and all animal studies were conducted with approval by the University Committee on the Use and Care of Animals (UCUCA). Animals were housed per guidelines of the Unit for Laboratory Animal Medicine (ULAM).

[3] = tested on: EGFR and ErbB2 mediated signaling; assay: Effect on downstream cell signaling in SKBr3 cells (Western blot); type: cell-based, human; conditions: heterodimer at 1, 5, and 20 μM
Method: The effect of heterodimer binding on downstream signaling was evaluated in SKBr3 cells. SKBr3 cells were seeded in 6-well flat-bottom plates. […] EGF (#E9644, Sigma) was reconstituted to 1 mg/mL using 10 mM acetic acid, diluted with 0.1% BSA, and added to SKBr3 cells at a concentration of 100 ng/mL. Lapatinib (CDS022971, Sigma) was diluted to 100 nM in DMSO and PBS from 1 mg/mL stock solution, and was added to the cells incubated with heterodimer at concentrations of 1, 5, and 20 μM in separate wells.

[4] = tested on: OE33 xenograft tumors; assay: In vivo competition with unlabeled peptide monomers; design: species or system mice; conditions: two hours after heterodimer injection
Method: In vivo heterodimer specificity was assessed by competition with 3000 μM of unlabeled peptide monomer or a mixture of two monomers diluted in 50 μL of PBS injected 20 min beforehand in tumor-bearing mice (n=4 per group). Blocking studies were carried out by injecting unlabeled QRH*, KSP*, and both monomers together to validate in vivo specificity. Images were collected at two hours after heterodimer injection when peak uptake was expected. The ratio of fluorescence intensity in tumor was calculated using regions of interest (ROI), and the results were presented as mean±standard deviation (SD).

[5] = tested on: OE33 cells; assay: Apparent association time constant by flow cytometry with OE33 cells; type: binding, human
Method: The apparent association time constant (Ka) was measured to assess binding kinetics to OE33 cells. OE33 cells were grown to about 80% confluence in 10 cm dishes, and cells were then detached with PBS-based cell dissociation buffer (Invitrogen). About 10^5 cells were incubated with 1 μM of the heterodimer at 4° C. for different time periods ranging from […]. The cells were centrifuged, washed with cold PBS, and fixed with 4% PFA. Flow cytometry was performed, and the median fluorescence intensity (y) was ratioed with that of OE33 cells without addition of peptide at time points (t) using Flowjo software. The rate constant K was calculated by fitting the data to the first-order kinetics model, y(t)=Imax[1−exp^(−kt)], where Imax=maximum value, using Prism 5.0 software.

[6] = tested on: OE33 human esophageal adenocarcinoma cells; assay: Confocal microscopy binding of heterodimer versus monomers to OE33 cells; type: cell-based
[7] = tested on: SKBr3 cells; assay: Confocal microscopy binding of Cy5.5-labeled heterodimer linker configurations to SKBr3 cells; type: cell-based, human; conditions: linkers E2, Hex, E3, E6, E10
Text: The two monomers were combined in a heterodimer configuration using a variable linker designed with either a PEG spacer that ranged in size from 17-74 atoms or a hydrophobic 6-aminohexonic acid linker in the α-, ξ-amino groups of the second lysine. The linker length was varied to determine the optimal spacing between monomers to maximize binding to the intended targets. Using confocal microscopy, binding for each Cy5.5-labeled heterodimer configuration to human breast cancer cells SKBr3 that overexpress both EGFR and ErbB2 was evaluated, FIG. 1B.
Hydrophilicity was good as well. Western blot analysis was used to show relative EGFR and ErbB2 expression levels, FIG. 1D. Western blot was performed by lysing cells in Pierce® RIPA lysis buffer containing Halt™ protease inhibitor cocktail (#87786, Thermo Scientific) for 30 min on ice. The lysates were centrifuged at 10,000 rpm for 10 min at 4° C. A BSA protein assay kit (#23227, Thermo Scientific) was used to quantify protein concentration in the supernatant. Aliquots of protein (10 μL) were used for electrophoresis on NuPAGE™ 4-12% Bis-Tris gels (#17031471, Invitrogen) followed by electrophoretic transfer onto membranes (#ISEQ00010, Merck Millipore Ltd). […]

heterodimer of QRHKPRE (SEQ ID NO: 1) and KSPNPRF (SEQ ID NO: 2) with E3 (triethyleneglycol) linker, Cy5.5 label [QRH*-KSP*-E3-Cy5.5]
improved binding affinity compared with either monomer alone [1]: 2 fold | Kd ([1]; flow cytometry, 4° C.): 0.023 µM | acute toxicity on histology (H&E) [2]: no sign of acute toxicity | phosphorylation of EGFR (p-EGFR) and ErbB2 (p-ErbB2) [3]: no change | phosphorylation of downstream AKT (p-AKT) and ERK (p-ERK) [3]: no downstream change | tumor signal after prior injection of unlabeled QRH*, KSP*, or both [4]: reduction of signal | apparent association time constant Ka ([5]; flow cytometry, 1 μM, 4° C.): 0.22 min⁻¹ | apparent association time constant (time) ([5]; value in brackets after Ka): 4.5 min | greater fluorescence intensity compared with either monomer alone [6]: 3 fold | mean signal among heterodimer linker configurations [7]: largest signal
